Data taken from patent publication US10966978B2, “Dose and regimen for HDM2-p53 interaction inhibitors” (Novartis AG, priority 2016, dated 2021).
Read-outs that look alike come from different tables or passages of the source.

Tested on: patients with advanced TP53 wild-type (WT) leukemias

In the case of `COc1ncc(-c2nc3c(n2C(C)C)[C@H](c2ccc(Cl)cc2)N(c2cc(Cl)cn(C)c2=O)C3=O)c(OC)n1` [HDM201, (S)-5-(5-Chloro-1-methyl-2-oxo-1,2-dihydro-pyridin-3-yl)-6-(4-chloro-phenyl)-2-(2,4-dimethoxy-pyrimidin-5-yl)-1-isopropyl-5,6-dihydro-1H-pyrrolo[3,4-d]imidazol-4-one], the “AE: Nausea” value (Regimen 2C N = 8, All Grades) is reported as 3 (37.5) n (%), the “AE: Neutropenia/Neutrophil Count Decreased” value (Regimen 2C N = 8, All Grades) is reported as 4 (50.0) n (%) and the “AE: Oedema” value (Regimen 2C N = 8, All Grades) is reported as 0 n (%). For the same compound, the “AE: Oedema Peripheral” value (Regimen 2C N = 8, All Grades) was 0 n (%), the “AE: Oral Disorder” value (Regimen 2C N = 8, All Grades) was 0 n (%) and the “AE: Pain In Extremity” value (Regimen 2C N = 8, All Grades) was 0 n (%). For the same compound, the “AE: Pancytopenia” value (Regimen 2C N = 8, All Grades) was 1 (12.5) n (%), the “AE: Pneumonia” value (Regimen 2C N = 8, All Grades) was 0 n (%) and the “AE: Pollakiuria” value (Regimen 2C N = 8, All Grades) was 0 n (%). For the same compound, the “AE: Pyrexia” value (Regimen 2C N = 8, All Grades) was 0 n (%), the “AE: Rash” value (Regimen 2C N = 8, All Grades) was 0 n (%) and the “AE: Rash Erythematous” value (Regimen 2C N = 8, All Grades) was 0 n (%). For the same compound, the “AE: Rash Papular” value (Regimen 2C N = 8, All Grades) was 0 n (%), the “AE: Rectal Haemorrhage” value (Regimen 2C N = 8, All Grades) was 0 n (%) and the “AE: Renal Failure” value (Regimen 2C N = 8, All Grades) was 1 (12.5) n (%). The “AE: Skin Exfoliation” value (Regimen 2C N = 8, All Grades) was 0 n (%), the “AE: Stomatitis” value (Regimen 2C N = 8, All Grades) was 1 (12.5) n (%) and the “AE: Subarachnoid Haemorrhage” value (Regimen 2C N = 8, All Grades) was 0 n (%). The “AE: Thrombocytopenia/Platelet Count Decreased” value (Regimen 2C N = 8, All Grades) was 5 (62.5) n (%), the “AE: Total” value (Regimen 2C N = 8, All Grades) was 8 (100) n (%) and the “AE: Tumour Lysis Syndrome” value (Regimen 2C N = 8, All Grades) was 1 (12.5) n (%). The “AE: Vomiting” value (Regimen 2C N = 8, All Grades) was 1 (12.5) n (%), the “AE: Weight Decreased” value (Regimen 2C N = 8, All Grades) was 0 n (%) and the “AE: White Blood Cell Count Decreased” value (Regimen 2C N = 8, All Grades) was 2 (25.0) n (%). For the same compound, the “AE: Abdominal Discomfort” value (Regimen 2C N = 8, Grade 3/4) was 0 n (%), the “AE: Abdominal Pain” value (Regimen 2C N = 8, Grade 3/4) was 0 n (%) and the “AE: Abdominal Pain Upper” value (Regimen 2C N = 8, Grade 3/4) was 0 n (%). The “AE: Amylase Increased” value (Regimen 2C N = 8, Grade 3/4) was 0 n (%), the “AE: Anaemia” value (Regimen 2C N = 8, Grade 3/4) was 3 (37.5) n (%) and the “AE: Arthralgia” value (Regimen 2C N = 8, Grade 3/4) was 0 n (%). The “AE: Asthenia” value (Regimen 2C N = 8, Grade 3/4) was 0 n (%), the “AE: Atrial Fibrillation” value (Regimen 2C N = 8, Grade 3/4) was 0 n (%) and the “AE: Atypical Pneumonia” value (Regimen 2C N = 8, Grade 3/4) was 0 n (%). The “AE: Balanitis Candida” value (Regimen 2C N = 8, Grade 3/4) was 0 n (%), the “AE: Blood Alkaline Phosphatase Increased” value (Regimen 2C N = 8, Grade 3/4) was 0 n (%) and the “AE: Blood Bilirubin Increased” value (Regimen 2C N = 8, Grade 3/4) was 0 n (%). The “AE: Blood Creatinine Increased” value (Regimen 2C N = 8, Grade 3/4) was 1 (12.5) n (%), the “AE: Blood Phosphorus Increased” value (Regimen 2C N = 8, Grade 3/4) was 0 n (%) and the “AE: Blood Uric Acid Increased” value (Regimen 2C N = 8, Grade 3/4) was 0 n (%). For the same compound, the “AE: Bone Marrow Failure” value (Regimen 2C N = 8, Grade 3/4) was 0 n (%), the “AE: C-Reactive Protein Increased” value (Regimen 2C N = 8, Grade 3/4) was 0 n (%) and the “AE: Cardiac Failure” value (Regimen 2C N = 8, Grade 3/4) was 0 n (%). The “AE: Cellulitis” value (Regimen 2C N = 8, Grade 3/4) was 0 n (%), the “AE: Chronic Graft Versus Host Disease” value (Regimen 2C N = 8, Grade 3/4) was 0 n (%) and the “AE: Conjunctival Haemorrhage” value (Regimen 2C N = 8, Grade 3/4) was 0 n (%). For the same compound, the “AE: Constipation” value (Regimen 2C N = 8, Grade 3/4) was 0 n (%), the “AE: Cough” value (Regimen 2C N = 8, Grade 3/4) was 0 n (%) and the “AE: Cystitis Viral” value (Regimen 2C N = 8, Grade 3/4) was 0 n (%). For the same compound, the “AE: Cytomegalovirus Infection” value (Regimen 2C N = 8, Grade 3/4) was 0 n (%), the “AE: Decreased Appetite” value (Regimen 2C N = 8, Grade 3/4) was 0 n (%) and the “AE: Diarrhoea” value (Regimen 2C N = 8, Grade 3/4) was 0 n (%). For the same compound, the “AE: Dyspepsia” value (Regimen 2C N = 8, Grade 3/4) was 0 n (%), the “AE: Dyspnoea” value (Regimen 2C N = 8, Grade 3/4) was 0 n (%) and the “AE: Epistaxis” value (Regimen 2C N = 8, Grade 3/4) was 0 n (%). The “AE: Fatigue” value (Regimen 2C N = 8, Grade 3/4) was 0 n (%), the “AE: Febrile Neutropenia” value (Regimen 2C N = 8, Grade 3/4) was 3 (37.5) n (%) and the “AE: Gamma-Glutamyltransferase Increased” value (Regimen 2C N = 8, Grade 3/4) was 0 n (%). The “AE: General Physical Health Deterioration” value (Regimen 2C N = 8, Grade 3/4) was 0 n (%), the “AE: Gingival Bleeding” value (Regimen 2C N = 8, Grade 3/4) was 0 n (%) and the “AE: Graft Versus Host Disease” value (Regimen 2C N = 8, Grade 3/4) was 0 n (%). For the same compound, the “AE: Haemoglobin Decreased” value (Regimen 2C N = 8, Grade 3/4) was 0 n (%), the “AE: Headache” value (Regimen 2C N = 8, Grade 3/4) was 0 n (%) and the “AE: Hyperbilirubinaemia” value (Regimen 2C N = 8, Grade 3/4) was 0 n (%). For the same compound, the “AE: Hyperglycaemia” value (Regimen 2C N = 8, Grade 3/4) was 0 n (%), the “AE: Hyperkalaemia” value (Regimen 2C N = 8, Grade 3/4) was 0 n (%) and the “AE: Hyperphosphataemia” value (Regimen 2C N = 8, Grade 3/4) was 0 n (%). The “AE: Hypoalbuminaemia” value (Regimen 2C N = 8, Grade 3/4) was 0 n (%), the “AE: Hypocalcaemia” value (Regimen 2C N = 8, Grade 3/4) was 0 n (%) and the “AE: Hypokalaemia” value (Regimen 2C N = 8, Grade 3/4) was 0 n (%). For the same compound, the “AE: Hypomagnesaemia” value (Regimen 2C N = 8, Grade 3/4) was 0 n (%), the “AE: Hyponatraemia” value (Regimen 2C N = 8, Grade 3/4) was 0 n (%) and the “AE: Hypophosphataemia” value (Regimen 2C N = 8, Grade 3/4) was 0 n (%). The “AE: Hypotension” value (Regimen 2C N = 8, Grade 3/4) was 0 n (%), the “AE: Infection” value (Regimen 2C N = 8, Grade 3/4) was 0 n (%) and the “AE: Infective Glossitis” value (Regimen 2C N = 8, Grade 3/4) was 0 n (%). The “AE: Iron Overload” value (Regimen 2C N = 8, Grade 3/4) was 0 n (%), the “AE: Leukopenia” value (Regimen 2C N = 8, Grade 3/4) was 0 n (%) and the “AE: Lip Oedema” value (Regimen 2C N = 8, Grade 3/4) was 0 n (%). For the same compound, the “AE: Lipase Increased” value (Regimen 2C N = 8, Grade 3/4) was 0 n (%), the “AE: Macular Oedema” value (Regimen 2C N = 8, Grade 3/4) was 0 n (%) and the “AE: Malaise” value (Regimen 2C N = 8, Grade 3/4) was 0 n (%). The “AE: Mouth Haemorrhage” value (Regimen 2C N = 8, Grade 3/4) was 0 n (%), the “AE: Nausea” value (Regimen 2C N = 8, Grade 3/4) was 0 n (%) and the “AE: Neutropenia/Neutrophil Count Decreased” value (Regimen 2C N = 8, Grade 3/4) was 3 (37.5) n (%). For the same compound, the “AE: Oedema” value (Regimen 2C N = 8, Grade 3/4) was 0 n (%), the “AE: Oedema Peripheral” value (Regimen 2C N = 8, Grade 3/4) was 0 n (%) and the “AE: Oral Disorder” value (Regimen 2C N = 8, Grade 3/4) was 0 n (%). For the same compound, the “AE: Pain In Extremity” value (Regimen 2C N = 8, Grade 3/4) was 0 n (%), the “AE: Pancytopenia” value (Regimen 2C N = 8, Grade 3/4) was 1 (12.5) n (%) and the “AE: Pneumonia” value (Regimen 2C N = 8, Grade 3/4) was 0 n (%). For the same compound, the “AE: Pollakiuria” value (Regimen 2C N = 8, Grade 3/4) was 0 n (%), the “AE: Pyrexia” value (Regimen 2C N = 8, Grade 3/4) was 0 n (%) and the “AE: Rash” value (Regimen 2C N = 8, Grade 3/4) was 0 n (%). For the same compound, the “AE: Rash Erythematous” value (Regimen 2C N = 8, Grade 3/4) was 0 n (%), the “AE: Rash Papular” value (Regimen 2C N = 8, Grade 3/4) was 0 n (%) and the “AE: Rectal Haemorrhage” value (Regimen 2C N = 8, Grade 3/4) was 0 n (%). For the same compound, the “AE: Renal Failure” value (Regimen 2C N = 8, Grade 3/4) was 1 (12.5) n (%), the “AE: Skin Exfoliation” value (Regimen 2C N = 8, Grade 3/4) was 0 n (%) and the “AE: Stomatitis” value (Regimen 2C N = 8, Grade 3/4) was 0 n (%). For the same compound, the “AE: Subarachnoid Haemorrhage” value (Regimen 2C N = 8, Grade 3/4) was 0 n (%), the “AE: Thrombocytopenia/Platelet Count Decreased” value (Regimen 2C N = 8, Grade 3/4) was 5 (62.5) n (%) and the “AE: Total” value (Regimen 2C N = 8, Grade 3/4) was 5 (62.5) n (%). The “AE: Tumour Lysis Syndrome” value (Regimen 2C N = 8, Grade 3/4) was 1 (12.5) n (%), the “AE: Vomiting” value (Regimen 2C N = 8, Grade 3/4) was 0 n (%) and the “AE: Weight Decreased” value (Regimen 2C N = 8, Grade 3/4) was 0 n (%). For the same compound, the “AE: White Blood Cell Count Decreased” value (Regimen 2C N = 8, Grade 3/4) was 2 (25.0) n (%).
